In US20110130326A1, “DEFENSINS FOR TREATMENT OF INFECTIVE ENDOCARDITIS” (Novozymes A/S, priority 2009, published 2011):
Values after ≈ are worked out from the molar mass of the structure shown. Like-named read-outs stand apart in the source and are kept apart here. Marks after values point to notes of the source that are not given here.

Tests used:
MRSA ATCC33591 [1] = experiment: Experimental rabbit aortic infective endocarditis model, Example 1 (end of treatment and relapse); type: in vivo, Staphylococcus aureus; conditions: for Staphylococcus aureus densities, Kidneys / Staphylococcus aureus densities, Spleen / Staphylococcus aureus densities, Vegetations / Staphylococcus aureus densities, Kidneys (Relapse) / Staphylococcus aureus densities, Spleen (Relapse) / Staphylococcus aureus densities, Vegetations (Relapse): rabbit, iv, 3 days; for Staphylococcus aureus densities, Kidneys / Staphylococcus aureus densities, Spleen / Staphylococcus aureus densities, Vegetations: 24 h after last dose, mean ± SD; for Staphylococcus aureus densities, Kidneys (Relapse) / Staphylococcus aureus densities, Spleen (Relapse) / Staphylococcus aureus densities, Vegetations (Relapse): then drug-free for an extra 3 days
Protocol: Experimental aortic infective endocarditis model was induced in New Zealand White rabbits with a methicillin-resistant Staphylococcus aureus (MRSA), strain ATCC33591, following trans-carotid-transaortic valve indwelling catheterization.
After aortic catheterization and 24 hr post-infection, animals were randomized to receive either:
i) no therapy (control); ii) endocardisin at 40 mg/kg, iv, twice daily; iii) vancomycin at 15 mg/kg, iv, twice daily; or iv) daptomycin at 12 mg/kg, iv, once daily (the latter two dose-strategies to mimic human-like PK).
Treatments lasted for 3 days. At 24 hours after the last antibiotic dose, half the animals were sacrificed with a lethal dose of sodium pentobarbital to test the treatment efficacies. The remaining animals resided drug-free for an extra 3 days for relapse studies. At sacrifice, vegetations, kidneys and spleen were removed and quantitatively cultured. […] Culture results were expressed as mean log10 CFU per gram of tissue (±SD).

MRSA ATCC33591 [2] = experiment: Experimental rabbit infective endocarditis model, Example 2 (dose response); type: in vivo, Staphylococcus aureus; conditions: for Staphylococcus aureus densities, Kidneys / Staphylococcus aureus densities, Spleen / Staphylococcus aureus densities, Vegetations: rabbit, 3 days, 24 h after last dose
Protocol: Rabbit IE was induced following transcarotid-transaortic valve indwelling catheterization. At 24 hrs after iv infection with 10^6 cfu MRSA ATCC33591 (ID95 inoculum), animals received either:
i) no therapy (control); ii) endocardisin at 5, 10 or 20 mg/kg, iv, bid; iii) vancomycin at 15 mg/kg, iv, bid; or iv) daptomycin at 12 mg/kg, iv, once-daily;
All regimens were for 3 days. At 24 hours after the last antibiotic dose, target tissues were removed and quantitatively cultured.

MRSA ATCC33591 [3] = experiment: MIC by broth microdilution assay according to CLSI; type: cell-based, Staphylococcus aureus
Protocol: The MICs of endocardisin, vancomycin and daptomycin were determined by a broth microdilution assay according to Clinical Laboratory Standards Institute (CLSI). MIC is defined as the lowest drug concentration completely inhibiting organisms growth.

## CCCCCCCCCC(=O)N[C@@H](Cc1c[nH]c2ccccc12)C(=O)N[C@H](CC(N)=O)C(=O)N[C@@H](CC(=O)O)C(=O)N[C@@H]1C(=O)NCC(=O)N[C@@H](CCCN)C(=O)N[C@@H](CC(=O)O)C(=O)N[C@H](C)C(=O)N[C@@H](CC(=O)O)C(=O)NCC(=O)N[C@H](CO)C(=O)N[C@@H]([C@H](C)CC(=O)O)C(=O)N[C@@H](CC(=O)c2ccccc2N)C(=O)O[C@@H]1C [daptomycin]
MRSA ATCC33591 [1]; 12 mg/kg, once-daily
  Staphylococcus aureus densities, Kidneys: 0.76 +/− 0.52* log10 CFU/g tissue
  Staphylococcus aureus densities, Spleen: 0.91 +/− 0.53* log10 CFU/g tissue
  Staphylococcus aureus densities, Vegetations: 1.90 +/− 0.82* log10 CFU/g tissue
  Staphylococcus aureus densities, Kidneys (Relapse): 1.68 +/− 2.24** log10 CFU/g tissue
  Staphylococcus aureus densities, Spleen (Relapse): 1.30 +/− 1.48** log10 CFU/g tissue
  Staphylococcus aureus densities, Vegetations (Relapse): 2.46 +/− 2.36** log10 CFU/g tissue
MRSA ATCC33591 [2]; 12 mg/kg, iv, once-daily
  Staphylococcus aureus densities, Kidneys: 0.76 +/− 0.53 log10 CFU/g tissue
  Staphylococcus aureus densities, Spleen: 0.91 +/− 0.53 log10 CFU/g tissue
  Staphylococcus aureus densities, Vegetations: 1.90 +/− 0.82 log10 CFU/g tissue
MRSA ATCC33591 [3]; Staphylococcus aureus, study strain MRSA ATCC33591, lowest drug concentration completely inhibiting growth, read-out: MIC
  MIC: 0.125 µg/mL (≈ 0.0771 µM)

## CN[C@H](CC(C)C)C(=O)N[C@H]1C(=O)N[C@@H](CC(N)=O)C(=O)N[C@H]2C(=O)N[C@H]3C(=O)N[C@H](C(=O)N[C@H](C(=O)O)c4cc(O)cc(O)c4-c4cc3ccc4O)[C@H](O)c3ccc(c(Cl)c3)Oc3cc2cc(c3O[C@@H]2O[C@H](CO)[C@@H](O)[C@H](O)[C@H]2O[C@H]2C[C@](C)(N)[C@H](O)[C@H](C)O2)Oc2ccc(cc2Cl)[C@H]1O [vancomycin]
MRSA ATCC33591 [1]; 15 mg/kg, twice-daily
  Staphylococcus aureus densities, Kidneys: 3.07 +/− 0.53 log10 CFU/g tissue
  Staphylococcus aureus densities, Spleen: 3.02 +/− 0.51 log10 CFU/g tissue
  Staphylococcus aureus densities, Vegetations: 5.60 +/− 1.47 log10 CFU/g tissue
  Staphylococcus aureus densities, Kidneys (Relapse): 4.69 +/− 1.63 log10 CFU/g tissue
  Staphylococcus aureus densities, Spleen (Relapse): 3.98 +/− 1.27 log10 CFU/g tissue
  Staphylococcus aureus densities, Vegetations (Relapse): 6.36 +/− 1.57 log10 CFU/g tissue
MRSA ATCC33591 [2]; 15 mg/kg, iv, twice-daily
  Staphylococcus aureus densities, Kidneys: 3.07 +/− 0.53 log10 CFU/g tissue
  Staphylococcus aureus densities, Spleen: 3.02 +/− 0.51 log10 CFU/g tissue
  Staphylococcus aureus densities, Vegetations: 5.60 +/− 1.47 log10 CFU/g tissue
MRSA ATCC33591 [3]; Staphylococcus aureus
  MIC: 2 µg/mL (≈ 1.38 µM)

## endocardisin: synthetic defensin; a polypeptide having the amino acid sequence shown in SEQ ID NO: 1 (GFGCNGPWNEDDLRCHNHCKSIKGYKGGYCAKGGFVCKCY)
MRSA ATCC33591 [1]; 3 days drug-free after 3 days treatment
  preventing relapse: most effective in preventing relapse
MRSA ATCC33591 [1]; endocardisin 40 mg/kg iv twice daily, P<0.001
  reduction of MRSA densities in all target tissues as compared with vancomycin therapy: significantly greater efficacy
MRSA ATCC33591 [1]; 40 mg/kg, twice-daily
  Staphylococcus aureus densities, Kidneys: 1.18 +/− 0.75* log10 CFU/g tissue
  Staphylococcus aureus densities, Spleen: 1.02 +/− 0.65* log10 CFU/g tissue
  Staphylococcus aureus densities, Vegetations: 2.41 +/− 1.50* log10 CFU/g tissue
  Staphylococcus aureus densities, Kidneys (Relapse): 0.75 +/− 0.79* log10 CFU/g tissue
  Staphylococcus aureus densities, Spleen (Relapse): 1.17 +/− 0.70* log10 CFU/g tissue
  Staphylococcus aureus densities, Vegetations (Relapse): 1.45 +/− 0.64* log10 CFU/g tissue
MRSA ATCC33591 [2]; 5, 10 or 20 mg/kg, iv, bid
  dose dependence of therapeutic efficacy in all target tissues: dose-dependent therapeutic efficacy
MRSA ATCC33591 [2]; endocardisin at 20 mg/kg
  reduction of MRSA densities in all target tissues vs. vancomycin therapy: significantly greater efficacy
MRSA ATCC33591 [2]; 5 mg/kg, iv, twice-daily
  Staphylococcus aureus densities, Kidneys: 4.33 +/− 1.27 log10 CFU/g tissue
  Staphylococcus aureus densities, Spleen: 4.61 +/− 1.11 log10 CFU/g tissue
  Staphylococcus aureus densities, Vegetations: 6.44 +/− 1.70 log10 CFU/g tissue
MRSA ATCC33591 [2]; 10 mg/kg, iv, twice-daily
  Staphylococcus aureus densities, Kidneys: 3.19 +/− 1.06 log10 CFU/g tissue
  Staphylococcus aureus densities, Spleen: 2.62 +/− 0.60 log10 CFU/g tissue
  Staphylococcus aureus densities, Vegetations: 4.74 +/− 1.84 log10 CFU/g tissue
MRSA ATCC33591 [2]; 20 mg/kg, iv, twice-daily
  Staphylococcus aureus densities, Kidneys: 0.61 +/− 0.21 log10 CFU/g tissue
  Staphylococcus aureus densities, Spleen: 0.61 +/− 0.12 log10 CFU/g tissue
  Staphylococcus aureus densities, Vegetations: 1.57 +/− 0.75 log10 CFU/g tissue
MRSA ATCC33591 [3]; study strain MRSA ATCC33591, lowest drug concentration completely inhibiting growth
  MIC: 0.5 micrograms/ml
